Patent US11739098B2 (BRISTOL-MYERS SQUIBB COMPANY, priority 2017, dated 2023)
pIC50: −log10 of the molar value.

Experiments:
Format in all cases: cell-based
human TLR9 = target: T1, human TLR9 (Homo sapiens, UniProt Q9NR96); assay: TLR9 inhibition reporter assay (HEK-Blue cells, SEAP reporter, ODN2006 stimulation); details: HEK-Blue cells overexpressing human TLR9, SEAP reporter, ODN2006 5 nM
T1 construct: host or cells: HEK-Blue cells (HEK293-derived reporter line)
T1 sequence (Q9NR96 26-1032): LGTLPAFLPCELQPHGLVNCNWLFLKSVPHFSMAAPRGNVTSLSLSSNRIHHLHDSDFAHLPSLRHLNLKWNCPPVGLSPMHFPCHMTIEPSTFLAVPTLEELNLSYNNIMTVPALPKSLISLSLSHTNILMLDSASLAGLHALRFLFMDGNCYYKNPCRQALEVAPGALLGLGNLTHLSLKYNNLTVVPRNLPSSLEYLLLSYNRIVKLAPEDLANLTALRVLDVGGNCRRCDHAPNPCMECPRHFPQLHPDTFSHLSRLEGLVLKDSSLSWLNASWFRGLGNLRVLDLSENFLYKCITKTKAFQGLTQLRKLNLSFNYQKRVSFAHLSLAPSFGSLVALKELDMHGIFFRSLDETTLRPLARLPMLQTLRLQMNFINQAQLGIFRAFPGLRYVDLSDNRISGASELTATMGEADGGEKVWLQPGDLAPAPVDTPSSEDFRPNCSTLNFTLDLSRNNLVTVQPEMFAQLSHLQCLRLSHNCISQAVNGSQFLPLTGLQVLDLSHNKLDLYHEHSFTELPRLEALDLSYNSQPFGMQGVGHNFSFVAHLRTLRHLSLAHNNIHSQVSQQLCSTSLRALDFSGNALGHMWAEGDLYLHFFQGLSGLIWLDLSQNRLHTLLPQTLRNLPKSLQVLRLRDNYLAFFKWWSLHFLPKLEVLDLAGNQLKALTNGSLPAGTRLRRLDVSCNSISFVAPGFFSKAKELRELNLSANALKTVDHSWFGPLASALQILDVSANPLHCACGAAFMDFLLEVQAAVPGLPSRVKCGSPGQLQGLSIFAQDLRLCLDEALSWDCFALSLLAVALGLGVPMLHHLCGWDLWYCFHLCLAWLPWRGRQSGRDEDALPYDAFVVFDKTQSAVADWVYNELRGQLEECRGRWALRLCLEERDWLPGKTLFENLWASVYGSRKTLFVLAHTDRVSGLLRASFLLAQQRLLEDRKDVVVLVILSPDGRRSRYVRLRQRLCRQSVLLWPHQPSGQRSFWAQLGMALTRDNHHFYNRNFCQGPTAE
In short: (§1)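 Percent inhibition of agonist-induced SEAP secretion in HEK-Blue cells after 22 h at 37 °C. Stimuli: 7.5 μM gardiquimod, 15.9 μM R848, 5 nM ODN2006 for TLR7, TLR8 and TLR9, added after 30 min compound exposure over a 0.05 nM–50 μM range.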

human TLR7 = target: T2, human TLR7 (Homo sapiens, UniProt Q9NYK1); assay: TLR7 inhibition reporter assay (HEK-Blue cells, SEAP reporter, gardiquimod stimulation); details: HEK-Blue cells overexpressing human TLR7, SEAP reporter, gardiquimod 7.5 μM
T2 construct: host or cells: HEK-Blue cells (HEK293-derived reporter line)
T2 sequence (Q9NYK1 27-1049): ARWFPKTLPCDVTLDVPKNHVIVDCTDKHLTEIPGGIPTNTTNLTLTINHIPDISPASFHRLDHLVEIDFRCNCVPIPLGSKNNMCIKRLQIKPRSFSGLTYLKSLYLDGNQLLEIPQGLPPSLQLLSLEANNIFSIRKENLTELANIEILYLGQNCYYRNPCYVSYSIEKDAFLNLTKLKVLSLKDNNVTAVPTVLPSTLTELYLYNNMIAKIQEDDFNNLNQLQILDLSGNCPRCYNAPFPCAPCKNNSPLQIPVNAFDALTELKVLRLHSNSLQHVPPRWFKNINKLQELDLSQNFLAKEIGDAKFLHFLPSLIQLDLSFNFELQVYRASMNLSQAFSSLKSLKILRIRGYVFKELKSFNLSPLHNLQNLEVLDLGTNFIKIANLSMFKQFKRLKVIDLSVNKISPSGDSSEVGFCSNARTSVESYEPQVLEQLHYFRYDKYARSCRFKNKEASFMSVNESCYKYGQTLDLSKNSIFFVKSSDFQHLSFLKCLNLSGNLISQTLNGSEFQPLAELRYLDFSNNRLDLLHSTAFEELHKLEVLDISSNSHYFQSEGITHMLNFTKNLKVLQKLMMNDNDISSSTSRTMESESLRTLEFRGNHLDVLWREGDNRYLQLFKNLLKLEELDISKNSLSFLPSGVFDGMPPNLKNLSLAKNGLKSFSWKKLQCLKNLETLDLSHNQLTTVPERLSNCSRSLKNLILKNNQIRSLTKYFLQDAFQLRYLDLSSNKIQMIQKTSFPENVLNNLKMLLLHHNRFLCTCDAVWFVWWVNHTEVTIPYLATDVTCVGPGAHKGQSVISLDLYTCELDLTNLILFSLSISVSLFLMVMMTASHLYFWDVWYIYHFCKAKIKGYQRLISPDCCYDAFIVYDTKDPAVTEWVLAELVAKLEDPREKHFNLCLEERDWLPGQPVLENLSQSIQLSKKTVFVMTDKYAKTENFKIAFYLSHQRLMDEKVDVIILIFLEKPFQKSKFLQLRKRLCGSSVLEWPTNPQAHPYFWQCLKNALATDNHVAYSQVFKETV
In short: as §1

human TLR8 = target: T3, human TLR8 (Homo sapiens, UniProt Q9NR97); assay: TLR8 inhibition reporter assay (HEK-Blue cells, SEAP reporter, R848 stimulation); details: HEK-Blue cells overexpressing human TLR8, SEAP reporter, R848 15.9 μM
T3 construct: host or cells: HEK-Blue cells (HEK293-derived reporter line)
T3 sequence (Q9NR97 27-1041): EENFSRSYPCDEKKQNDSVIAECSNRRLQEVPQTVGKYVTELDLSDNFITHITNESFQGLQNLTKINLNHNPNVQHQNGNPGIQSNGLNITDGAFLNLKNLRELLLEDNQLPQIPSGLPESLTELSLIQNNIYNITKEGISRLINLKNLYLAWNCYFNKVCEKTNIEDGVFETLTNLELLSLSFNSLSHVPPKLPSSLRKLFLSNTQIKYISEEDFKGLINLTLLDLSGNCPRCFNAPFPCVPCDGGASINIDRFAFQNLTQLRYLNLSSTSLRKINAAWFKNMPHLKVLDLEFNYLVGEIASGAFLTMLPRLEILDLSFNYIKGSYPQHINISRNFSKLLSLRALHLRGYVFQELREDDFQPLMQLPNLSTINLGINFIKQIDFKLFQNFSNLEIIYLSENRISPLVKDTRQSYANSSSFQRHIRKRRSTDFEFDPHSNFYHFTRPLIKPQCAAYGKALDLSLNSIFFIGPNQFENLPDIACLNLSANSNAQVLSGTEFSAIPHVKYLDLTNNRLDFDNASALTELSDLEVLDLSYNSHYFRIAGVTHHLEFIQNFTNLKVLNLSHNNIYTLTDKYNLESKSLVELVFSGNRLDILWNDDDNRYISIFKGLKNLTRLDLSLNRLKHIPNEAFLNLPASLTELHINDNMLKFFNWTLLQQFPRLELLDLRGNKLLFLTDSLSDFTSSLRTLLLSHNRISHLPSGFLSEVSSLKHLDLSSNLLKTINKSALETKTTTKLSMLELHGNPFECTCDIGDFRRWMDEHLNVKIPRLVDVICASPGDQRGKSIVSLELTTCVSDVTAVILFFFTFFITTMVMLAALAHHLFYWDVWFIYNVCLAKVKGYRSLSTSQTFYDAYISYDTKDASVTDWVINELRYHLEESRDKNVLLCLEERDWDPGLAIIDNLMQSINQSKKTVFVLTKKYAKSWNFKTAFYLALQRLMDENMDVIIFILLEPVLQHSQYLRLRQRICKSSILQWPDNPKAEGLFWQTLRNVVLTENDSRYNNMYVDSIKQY
In short: as §1

SMILES	pIC50 (human TLR9)	pIC50 (human TLR7)	pIC50 (human TLR8)
CNC(=O)c1cn2cc(-c3[nH]c4ccc(C5CCN(CC(=O)N(C)C)CC5)cc4c3C(C)C)cc(C)c2n1 [Example 346, 6-(5-(1-(2-(dimethylamino)-2-oxoethyl)piperidin-4-yl)-3-isopropyl-1H-indol-2-yl)-N,8-dimethylimidazo[1,2-a]pyridine-2-carboxamide]	4.30 to 6.00	> 7.00	> 7.00
Cc1cc(-c2[nH]c3ccc(C4CCN(CCCS(C)(=O)=O)CC4)cc3c2C(C)C)cn2nnnc12 [Example 787, 6-(3-isopropyl-5-(1-(3-(methylsulfonyl)propyl)piperidin-4-yl)-1H-indol-2-yl)-8-methyltetrazolo[1,5-a]pyridine]	4.30 to 6.00	> 7.00	> 7.00
CC(C)c1c(-c2ccn3cnnc3c2)[nH]c2ccc(C3CCN(C(=O)CN(C)C)CC3)cc12 [Example 466, 1-(4-(2-([1,2,4]triazolo[4,3-a]pyridin-7-yl)-3-isopropyl-1H-indol-5-yl)piperidin-1-yl)-2-(dimethylamino)ethan-1-one]	6.00 to 7.00	> 7.00	6.00 to 7.00
CNC(=O)CN1CCC(c2ccc3[nH]c(-c4cc(C)c5oc(C)nc5c4)c(C(C)C)c3c2)CC1 [Example 339, 2-(4-(2-(2,7-dimethylbenzo[d]oxazol-5-yl)-3-isopropyl-1H-indol-5-yl)piperidin-1-yl)-N-methylacetamide]	4.30 to 6.00	> 7.00	6.00 to 7.00
CC(C)c1c(-c2ccn3cnnc3c2)[nH]c2ccc(C3CCN(Cc4ncn(C)n4)CC3)cc12 [Example 880, 7-(3-isopropyl-5-(1-((1-methyl-1H-1,2,4-triazol-3-yl)methyl)piperidin-4-yl)-1H-indol-2-yl)-[1,2,4]triazolo[4,3-a]pyridine]	4.30 to 6.00	6.00 to 7.00	6.00 to 7.00
CC(C)c1c(-c2ccnc3[nH]ncc23)[nH]c2ccc(C3CCN(C(=O)CN4CCNC(=O)C4)CC3)cc12 [Example 587, 4-(2-(4-(3-isopropyl-2-(1H-pyrazolo[3,4-b]pyridin-4-yl)-1H-indol-5-yl)piperidin-1-yl)-2-oxoethyl) piperazin-2-one]	< 4.30	6.00 to 7.00	6.00 to 7.00
CC(C)c1c(-c2ccnc3[nH]ncc23)[nH]c2cc(Cl)c(C3CCNCC3)cc12 [Example 252, 4-(6-chloro-3-isopropyl-5-(piperidin-4-yl)-1H-indol-2-yl)-1H-pyrazolo[3,4-b]pyridine]	6.00 to 7.00	> 7.00	> 7.00
CCc1c(-c2ccnc3[nH]ncc23)[nH]c2ccc(C3CCN(C(=O)C4CCNCC4)CC3)cc12 [Example 647, (4-(3-ethyl-2-(1H-pyrazolo[3,4-b]pyridin-4-yl)-1H-indol-5-yl)piperidin-1-yl)(piperidin-4-yl)methanone]	4.30 to 6.00	6.00 to 7.00	6.00 to 7.00
CCc1c(-c2ccnc3[nH]ncc23)[nH]c2ccc(C3CCN(Cc4c[nH]c(-c5ccccc5)n4)CC3)cc12 [Example 908, 4-(3-ethyl-5-(1-((2-phenyl-1H-imidazol-4-yl)methyl)piperidin-4-yl)-1H-indol-2-yl)-1H-pyrazolo[3,4-b]pyridine]	4.30 to 6.00	6.00 to 7.00	6.00 to 7.00
Cc1cc(-c2[nH]c3ccc(C4CCN(C(=O)CN(C)C)CC4)cc3c2C(C)C)cc2cnnn12 [Example 488, 2-(dimethylamino)-1-(4-(3-isopropyl-2-(7-methyl-[1,2,3]triazolo[1,5-a]pyridin-5-yl)-1H-indol-5-yl)piperidin-1-yl)ethan-1-one]	4.30 to 6.00	> 7.00	> 7.00
Cc1ccnc2[nH]cc(-c3[nH]c4ccc(C5CCN(C(=O)CN(C)C)CC5)cc4c3C(C)C)c12 [Example 458, 2-(dimethylamino)-1-(4-(3-isopropyl-2-(4-methyl-1H-pyrrolo[2,3-b]pyridin-3-yl)-1H-indol-5-yl)piperidin-1-yl)ethan-1-one]	4.30 to 6.00	> 7.00	6.00 to 7.00
Cc1c(-c2[nH]c3ccc(C4CCN(CC(=O)N(C)C)CC4)cc3c2C(C)C)ccc2nnnn12 [Example 308, 2-(4-(3-isopropyl-2-(5-methyltetrazolo[1,5-a]pyridin-6-yl)-1H-indol-5-yl)piperidin-1-yl)-N,N-dimethylacetamide]	4.30 to 6.00	6.00 to 7.00	> 7.00
CC(C)c1c(-c2ccn3nccc3c2)[nH]c2ccc(C3CCN(C(=O)CN(C)C)CC3)cc12 [Example 542, 2-(dimethylamino)-1-(4-(3-isopropyl-2-(pyrazolo[1,5-a]pyridin-5-yl)-1H-indol-5-yl)piperidin-1-yl)ethan-1-one]	4.30 to 6.00	> 7.00	6.00 to 7.00
Cc1cc(-c2[nH]c3ccc(C4CCNCC4)cc3c2C(C)C)cn2ccnc12 [Example 112, 6-(3-isopropyl-5-(piperidin-4-yl)-1H-indol-2-yl)-8-methylimidazo[1,2-a]pyridine]	6.00 to 7.00	> 7.00	> 7.00
